Measurements: patent US9982019B2, “Glycopeptide compound or pharmaceutical salt thereof and method for preparing same, and pharmaceutical compositions and applications thereof” (priority 2012, dated 2018)

Columns and labels:
[1] = system: Feces enterococci (VSE clinical isolates: MEFA 0039); experiment: In vitro antibacterial activity, agar two times dilution method, MIC; format: cell-based; conditions: agar dilution; VSE clinical isolate MEFA 0039
Description: (§1) Testing results of in vitro antibacterial activity of some target compounds of the present invention are as follows:
(§2) Drugs: firstly being dissolved in DMSO, and then being diluted to an appropriate concentration with sterile water, and afterwards successively being diluted for twice.
(§3) Determination: referencing the standard of CSSI 2008 version, using a agar two times dilution method, determine the minimum inhibitory concentration (MIC values).
(§4) Feces enterococci (VSE clinical isolates: MEFA 0039); Streptococcus pneumoniae (PISP: ATCC 49619).
(§5) 3. Positive Control Drug is Vancomycin Hydrochloride.

[2] = system: Streptococcus pneumoniae (PISP: ATCC 49619); experiment: as above; format: cell-based; conditions: agar dilution; PISP ATCC 49619
Description: as §1, §2, §3, §4, §5

Compound | MIC Values of Compounds, Enterococci [1] [µg/mL] | MIC Values of Compounds, Streptococcus pneumoniae [2] [µg/mL]
CCCCNCc1c(O)cc2c(c1O)-c1cc(ccc1O)C1NC(=O)C3NC(=O)C(CC(N)=O)NC(=O)C(NC(=O)C(CC(C)C)NC)C(O)c4ccc(c(Cl)c4)Oc4cc3cc(c4OC3OC(CO)C(O)C(O)C3OC3CC(C)(NCc4ccccc4Br)C(O)C(C)O3)Oc3ccc(cc3Cl)C(OC3CC(C)(N)C(O)C(C)O3)C(NC1=O)C(=O)NC2C(=O)O (stereo not drawn) [Compound I7] | 1 | 0.5
CNC(CC(C)C)C(=O)NC1C(=O)NC(CC(N)=O)C(=O)NC2C(=O)NC3C(=O)NC(C(=O)NC(C(=O)O)c4cc(O)c(CN5CCOCC5)c(O)c4-c4cc3ccc4O)C(OC3CC(C)(N)C(O)C(C)O3)c3ccc(c(Cl)c3)Oc3cc2cc(c3OC2OC(CO)C(O)C(O)C2OC2CC(C)(NCc3cccc(Br)c3)C(O)C(C)O2)Oc2ccc(cc2Cl)C1O (stereo not drawn) [Compound I8] | 0.25 | 0.063
CCN(CC)Cc1c(O)cc2c(c1O)-c1cc(ccc1O)C1NC(=O)C3NC(=O)C(CC(N)=O)NC(=O)C(N4CN(C)C(CC(C)C)C4=O)C(O)c4ccc(c(Cl)c4)Oc4cc3cc(c4OC3OC(CO)C(O)C(O)C3OC3CC(C)(NCc4ccc(Br)cc4)C(O)C(C)O3)Oc3ccc(cc3Cl)C(OC3CC(C)(N)C(O)C(C)O3)C(NC1=O)C(=O)NC2C(=O)O (stereo not drawn) [II7] | 1 | 0.25
